We go through 10 compounds from patent US4994485A, “Thio compounds having fungicidal activity” (Duphar International Research B.V., priority 1986, dated 1991).

The first experiment relates to Leptosphaeria nodorum. Nature of the experiment: In vitro test on activity against Leptosphaeria nodorum. The class given is cell-based. As to conditions: Parastagonospora nodorum, read-out: growth inhibition of the fungus. Here is the method:
(§1) The compound to be tested is processed in a culture medium consisting of 1% by weight of glucose, 0.2% by weight of a yeast extract (marmite), 0.5% by weight of a protein (pepton), 2.5% by weight of agar-agar, and 95.8% by weight of water, in petri dishes in concentrations of 3 and 10 ppm. The petri dishes are inoculated with the plant-pathogenic fungus Pyrenophora graminea and then kept at a temperature of 20° C. After 48 hours the growth-inhibiting activity of the compounds is determined visually. For comparison, the known substance (b) (see EXAMPLE XV) is also tested.
Compounds according to the invention are tested on i Leptosphaeria nodorum in the same manner as described in EXAMPLE XIX.
The inhibition is the relative decrease from the control value, in per cent. In the case of `CC[S+]([O-])c1sc(C(C)=O)c(Cl)c1C#N` (stereo not drawn) [(5), 2-ethylsulphinyl-3-cyano-4-chloro-5-acetylthiophene], the inhibition at 30 ppm was ≥ 85%.
Consider `CC[S+]([O-])c1sc(C(C)=O)cc1C#N` (stereo not drawn) [(9), 2-ethylsulphinyl-3-cyano-5-acetylthiophene], for which the inhibition at 30 ppm was ≥ 85%.
The same measure, in the same setting: the value for `COc1c(C#N)sc([S+](C)[O-])c1C#N` (stereo not drawn) [(12), 2-methylsulphinyl-3,5-dicyano-4-methoxythiophene] was ≥ 85%; that for `CCOc1c(C#N)sc([S+]([O-])CC)c1C#N` (stereo not drawn) [(14), 2-ethylsulphinyl-3,5-dicyano-4-ethoxythiophene] was ≥ 85%.
Take `CSC(=C(C#N)c1ccc(Cl)c(Cl)c1)[S+](C)[O-]` (stereo not drawn) [(15), α-cyano-β-merhylsulphinyl-β-methylthio-3,4-dichloro-styrene]: the inhibition at 30 ppm was ≥ 85%.
On to `CSC(=C(C#N)c1ccc(Cl)cc1)[S+](C)[O-]` (stereo not drawn) [(19), α-cyanoβ-methylsulphinyl-β-methylthio-4-chlorostyrene], for which the inhibition at 30 ppm is ≥ 85%.
With `C[S+]([O-])c1sc(C(=O)c2ccccc2)c(Cl)c1C#N` (stereo not drawn) [(31), 2-methylsulphinyl-3-cyano-4-chloro 5-benzoylthiophene], the inhibition at 30 ppm was ≥ 85%.
The same measure, in the same setting: the same measure for `CCCCCC[S+]([O-])c1sc(C#N)c(Cl)c1C#N` (stereo not drawn) [(34), 2-n-hexylsulphinyl-3,5-dicyano-4-chlorothiophene]: ≥ 85%; for `C[S+]([O-])c1sc(C#N)c(-c2ccc(Cl)cc2)c1C#N` (stereo not drawn) [(35), 2-methylsulphinyl-3,5-dicyano-4-(4-chlorophenyl)thiophene]: ≥ 85%.
On to `CCCCCCCC[S+]([O-])c1sc(C#N)c(Cl)c1C#N` (stereo not drawn) [(36), 2-n-octylsulphinyl-3,5-dicyano-4-chlorothiophene], for which the inhibition at 30 ppm was ≥ 85%.

The next experiment relates to Fusarium culmorum. Kind of experiment: Protection of seedlings against plant pathogenic seed fungus by seed treatment (wheat). The conditions noted are these: wheat seed infested with Fusarium culmorum; 3 g composition (10% by weight in kaolin) per kg of seed; after three weeks, 8°-12° C.; untreated 67. The class given is in vivo. As to the method: Test with respect to the protection of seedlings against a plant pathogenic seed fungus, namely Fusarium culmorum, by means of a seed treatment.
Wheat seed, infested with Fusarium culmorum, is treated with the substance to be tested in the form of a composi tion in a quantity of 3 g per kg of seed. The composition is obtained by pulverising the substance to be tested and then intimately mixing with kaolin in a concentration of 10% by weight. The seed thus treated is sown in a tray containing soil which is placed in a Wisconsin tank with a bottom temperature of 8°-12° C. After three weeks the number of emerged and healthy plants is determined. The emergence of healthy plants from untreated seed serves as control. For comparison, the known substances 2-methylsulphinyl-4-methyl-5-nitrothiazole (a), 2-methylsulphinyl-3-nitrothiophene (b) and 2-ethylsulphinyl-3-nitro-5-acetylthiophene (c) mentioned hereinbefore are also tested. In the examples, the numbers of the compounds refer to the specification.
`CC[S+]([O-])c1sc(C(C)=O)c(Cl)c1C#N` (stereo not drawn) [(5), 2-ethylsulphinyl-3-cyano-4-chloro-5-acetylthiophene]: the “Percentage of emerged, healthy plants” value was determined as 85%.
Still for that read-out and setting: the value for `CC[S+]([O-])c1sc(C(C)=O)cc1C#N` (stereo not drawn) [(9), 2-ethylsulphinyl-3-cyano-5-acetylthiophene] was 85%; that for `COc1c(C#N)sc([S+](C)[O-])c1C#N` (stereo not drawn) [(12), 2-methylsulphinyl-3,5-dicyano-4-methoxythiophene] was 93%.
On to `CCOc1c(C#N)sc([S+]([O-])CC)c1C#N` (stereo not drawn) [(14), 2-ethylsulphinyl-3,5-dicyano-4-ethoxythiophene], for which the “Percentage of emerged, healthy plants” value stood at 87%.

For another experiment, the system named is Pythium spp. Kind of experiment: Protection of seedlings against plant-pathogenic soil fungus by seed treatment (beet). The class given is in vivo. The conditions noted are these: 600 mg of active substance per kg of seed, after 3 weeks, 18°-22° C., untreated 72. Here is the method: Test with respect to the protection of seedlings against a plant-pathogenicsoil fungus, namely Pythium spp., by means of a seed treatment.
The compounds to be tested are processed to compositions by pulverising them and then mixing them intimately with kaolin in the desired concentration (see Table B). Beet seed is treated with these compositions in a quantity of 6 g of composition per kg of seed and then sown in trays with soil which was seriously infested with Pythium spp. After 3 weeks in a glass-house at 18°-22° C. and a relative humidity of 70-100%, the percentage of non-emerged and diseased seedlings (damping-off) is determined. The results are recorded in Table B. For comparison, the known substance 2-methylsulphinyl-4-methyl-5-nitrothiazole(a) is also tested.
In turn, `CC[S+]([O-])c1sc(C(C)=O)c(Cl)c1C#N` (stereo not drawn) [(5), 2-ethylsulphinyl-3-cyano-4-chloro-5-acetylthiophene] returned a percentage damping-off of 21%.
`CC[S+]([O-])c1sc(C(C)=O)cc1C#N` (stereo not drawn) [(9), 2-ethylsulphinyl-3-cyano-5-acetylthiophene]: the percentage damping-off stood at 15%.
`COc1c(C#N)sc([S+](C)[O-])c1C#N` (stereo not drawn) [(12), 2-methylsulphinyl-3,5-dicyano-4-methoxythiophene] gave a percentage damping-off of 0%.
`CCOc1c(C#N)sc([S+]([O-])CC)c1C#N` (stereo not drawn) [(14), 2-ethylsulphinyl-3,5-dicyano-4-ethoxythiophene] had a percentage damping-off of 23%.

Staying with this experiment, now noted: 1200 mg of active substance per kg of seed, after 3 weeks, 18°-22° C., untreated 72.
Compound `CC[S+]([O-])c1sc(C(C)=O)c(Cl)c1C#N` (stereo not drawn) [(5), 2-ethylsulphinyl-3-cyano-4-chloro-5-acetylthiophene] gave a percentage damping-off of 17%.
`CC[S+]([O-])c1sc(C(C)=O)cc1C#N` (stereo not drawn) [(9), 2-ethylsulphinyl-3-cyano-5-acetylthiophene] gave a percentage damping-off of 11%.
In the case of `COc1c(C#N)sc([S+](C)[O-])c1C#N` (stereo not drawn) [(12), 2-methylsulphinyl-3,5-dicyano-4-methoxythiophene], the percentage damping-off is 0%.
Still for that read-out and setting: the value for `CCOc1c(C#N)sc([S+]([O-])CC)c1C#N` (stereo not drawn) [(14), 2-ethylsulphinyl-3,5-dicyano-4-ethoxythiophene] was 20%.

A further experiment relates to Fusarium culmorum. Nature of the experiment: In vitro test on activity against Fusarium culmorum. The conditions noted are these: read-out: growth inhibition of the fungus. The class given is cell-based.
With `CC[S+]([O-])c1sc(C(C)=O)c(Cl)c1C#N` (stereo not drawn) [(5), 2-ethylsulphinyl-3-cyano-4-chloro-5-acetylthiophene], the inhibition at 30 ppm was ≥ 75%.
As to `COc1c(C#N)sc([S+](C)[O-])c1C#N` (stereo not drawn) [(12), 2-methylsulphinyl-3,5-dicyano-4-methoxythiophene], the inhibition at 30 ppm was ≥ 75%.
In the case of `CCOc1c(C#N)sc([S+]([O-])CC)c1C#N` (stereo not drawn) [(14), 2-ethylsulphinyl-3,5-dicyano-4-ethoxythiophene], the inhibition at 30 ppm was ≥ 75%.
Same read-out and setting: the same measure for `CSC(=C(C#N)c1ccc(Cl)cc1)[S+](C)[O-]` (stereo not drawn) [(19), α-cyanoβ-methylsulphinyl-β-methylthio-4-chlorostyrene]: ≥ 75%.
Regarding `C[S+]([O-])c1sc(C(=O)c2ccccc2)c(Cl)c1C#N` (stereo not drawn) [(31), 2-methylsulphinyl-3-cyano-4-chloro 5-benzoylthiophene], the inhibition at 30 ppm was ≥ 75%.
On the same count and under the same terms, the value for `CCCCCC[S+]([O-])c1sc(C#N)c(Cl)c1C#N` (stereo not drawn) [(34), 2-n-hexylsulphinyl-3,5-dicyano-4-chlorothiophene] was ≥ 75%; that for `C[S+]([O-])c1sc(C#N)c(-c2ccc(Cl)cc2)c1C#N` (stereo not drawn) [(35), 2-methylsulphinyl-3,5-dicyano-4-(4-chlorophenyl)thiophene] was ≥ 75%; that for `CCCCCCCC[S+]([O-])c1sc(C#N)c(Cl)c1C#N` (stereo not drawn) [(36), 2-n-octylsulphinyl-3,5-dicyano-4-chlorothiophene] was ≥ 75%.

The next experiment concerns Pythium splendens. Kind of experiment: In vitro test on activity against Pythium splendens. The conditions noted are these: Globisporangium splendens, read-out: growth inhibition of the fungus. In kind it is cell-based.
Turning to `CC[S+]([O-])c1sc(C(C)=O)c(Cl)c1C#N` (stereo not drawn) [(5), 2-ethylsulphinyl-3-cyano-4-chloro-5-acetylthiophene], the inhibition at 10 ppm was ≥ 95%.
Consider `CC[S+]([O-])c1sc(C(C)=O)cc1C#N` (stereo not drawn) [(9), 2-ethylsulphinyl-3-cyano-5-acetylthiophene], for which the inhibition at 10 ppm is ≥ 95%.
For `COc1c(C#N)sc([S+](C)[O-])c1C#N` (stereo not drawn) [(12), 2-methylsulphinyl-3,5-dicyano-4-methoxythiophene], the inhibition at 10 ppm is ≥ 95%.
Turning to `CCOc1c(C#N)sc([S+]([O-])CC)c1C#N` (stereo not drawn) [(14), 2-ethylsulphinyl-3,5-dicyano-4-ethoxythiophene], the inhibition at 10 ppm is ≥ 95%.
On the same count and under the same terms, the same measure for `CSC(=C(C#N)c1ccc(Cl)c(Cl)c1)[S+](C)[O-]` (stereo not drawn) [(15), α-cyano-β-merhylsulphinyl-β-methylthio-3,4-dichloro-styrene]: ≥ 95%; for `CSC(=C(C#N)c1ccc(Cl)cc1)[S+](C)[O-]` (stereo not drawn) [(19), α-cyanoβ-methylsulphinyl-β-methylthio-4-chlorostyrene]: ≥ 95%.
Turning to `C[S+]([O-])c1sc(C(=O)c2ccccc2)c(Cl)c1C#N` (stereo not drawn) [(31), 2-methylsulphinyl-3-cyano-4-chloro 5-benzoylthiophene], the inhibition at 10 ppm is ≥ 95%.
As to `CCCCCC[S+]([O-])c1sc(C#N)c(Cl)c1C#N` (stereo not drawn) [(34), 2-n-hexylsulphinyl-3,5-dicyano-4-chlorothiophene], the inhibition at 10 ppm was ≥ 95%.
For `C[S+]([O-])c1sc(C#N)c(-c2ccc(Cl)cc2)c1C#N` (stereo not drawn) [(35), 2-methylsulphinyl-3,5-dicyano-4-(4-chlorophenyl)thiophene], the inhibition at 10 ppm was ≥ 95%.
As for `CCCCCCCC[S+]([O-])c1sc(C#N)c(Cl)c1C#N` (stereo not drawn) [(36), 2-n-octylsulphinyl-3,5-dicyano-4-chlorothiophene], the inhibition at 10 ppm was ≥ 95%.

The next experiment has as its system Pyrenophora graminea. Kind of experiment: In vitro test on activity against Pyrenophora graminea. The class given is cell-based. As to conditions: 3 ppm, 48 hours, 20° C., read-out: % growth inhibition of the fungus. As to the method:
In vitro test on activity against Pyrenophora graminea.
as §1
For `CC[S+]([O-])c1sc(C(C)=O)c(Cl)c1C#N` (stereo not drawn) [(5), 2-ethylsulphinyl-3-cyano-4-chloro-5-acetylthiophene], the inhibition at 3 ppm is 54%.

Staying with this experiment, now noted: 10 ppm, 48 hours, 20° C., read-out: % growth inhibition of the fungus.
For `CC[S+]([O-])c1sc(C(C)=O)c(Cl)c1C#N` (stereo not drawn) [(5), 2-ethylsulphinyl-3-cyano-4-chloro-5-acetylthiophene], the inhibition at 10 ppm worked out at 89%.
As to `C[S+]([O-])c1sc(C(=O)c2ccccc2)c(Cl)c1C#N` (stereo not drawn) [(31), 2-methylsulphinyl-3-cyano-4-chloro 5-benzoylthiophene], the inhibition at 10 ppm stood at 77%.
Still for that read-out and setting: the same measure for `C[S+]([O-])c1sc(C#N)c(-c2ccc(Cl)cc2)c1C#N` (stereo not drawn) [(35), 2-methylsulphinyl-3,5-dicyano-4-(4-chlorophenyl)thiophene]: 76%.

The next experiment has as its system Rhizoctonia solani. Kind of experiment: In vitro test on activity against Rhizoctonia solani. In kind it is cell-based. As to conditions: read-out: growth inhibition of the fungus. Here is the method:
The compound to be tested is processed in a culture medium consisting of 1% by weight of glucose, 0.2% by weight of a yeast extract (marmite), 0.5% by weight of a protein (pepton), 2.5% by weight of agar-agar, and 95.8% by weight of water, […] The petri dishes are inoculated with the plant-pathogenic fungus Pyrenophora graminea and then kept at a temperature of 20° C. After 48 hours the growth-inhibiting activity of the compounds is determined visually. For comparison, the known substance (b) (see EXAMPLE XV) is also tested.
Compounds according to the invention are tested on Rhizoctonia solani in the same manner as described in EXAMPLE XIX.
In the case of `CSC(=C(C#N)c1ccc(Cl)c(Cl)c1)[S+](C)[O-]` (stereo not drawn) [(15), α-cyano-β-merhylsulphinyl-β-methylthio-3,4-dichloro-styrene], the inhibition at 30 ppm was ≥ 75%.
For the compound `CSC(=C(C#N)c1ccc(Cl)cc1)[S+](C)[O-]` (stereo not drawn) [(19), α-cyanoβ-methylsulphinyl-β-methylthio-4-chlorostyrene], the inhibition at 30 ppm was ≥ 75%.
For the compound `CCCCCC[S+]([O-])c1sc(C#N)c(Cl)c1C#N` (stereo not drawn) [(34), 2-n-hexylsulphinyl-3,5-dicyano-4-chlorothiophene], the inhibition at 30 ppm was ≥ 75%.
As to `CCCCCCCC[S+]([O-])c1sc(C#N)c(Cl)c1C#N` (stereo not drawn) [(36), 2-n-octylsulphinyl-3,5-dicyano-4-chlorothiophene], the inhibition at 30 ppm was ≥ 75%.
